What is called Kd is a measure of binding affinity in units of concentration.

In the first assay the target is ribosome A site.
Test: not given
To be noted: binding the A site, accepting the growing peptide chain, and falling off the ribosome; cited from earlier work.
For the molecule `COc1ccc(C[C@H](N)C(=O)N[C@H]2[C@@H](O)[C@H](n3cnc4c(N(C)C)ncnc43)O[C@@H]2CO)cc1` [puromycin], the Kd was 100 µM.

The test system of a further assay is ribosome (eukaryotic peptidyl transferase / translocation) in reticulocyte lysate translation extract. Description: RNA-peptide fusion formation (35S Met template labeling) with the long myc template in reticulocyte lysate translation extract, effect of inhibitors. It is filed as biochemical, rabbit. To be noted: long myc template (LP154), inhibitor concentration not given, 60 min. The source says: To confirm that the template labeling by ^35 S Met was a consequence of translation, and more specifically resulted from the peptidyl transferase activity of the ribosome, the effect of various inhibitors on the labeling reaction was examined. The specific inhibitors of eukaryotic peptidyl transferase, anisomycin, gougerotin, and sparsomycin (Vazquez, Inhibitors of Protein Biosynthesis (Springer-Verlag, N.Y.), pp. 312 (1979)), as well as the translocation inhibitors cycloheximide and emetine (Vazquez, Inhibitors of Protein Biosynthesis (Springer-Verlag, N.Y.), pp. 312 (1979)) all decreased RNA-peptide fusion formation by ~95% using the long myc template and a reticulocyte lysate translation extract.
Reticulocyte Translation Reactions. Translation reactions were performed either with purchased kits (Novagen, Madison, Wis.) or using extract prepared according to published protocols (Jackson and Hunt, Meth. Enzymol. 96:50 (1983)). Reticulocyte-rich blood was obtained from Pel-Freez Biologicals (Rogers, […].). In both cases, the reaction conditions were those recommended for use with Red Nova Lysate (Novagen). Reactions consisted of 100 mM KCl, 0.5 mM MgOAc, 2 mM DTT, 20 mM HEPES pH 7.6, 8 mM creatine phosphate, 25 µM in each amino acid (with the exception of methionine if ^35 S Met was used), and 40% v/v of lysate. Incubation was at 30° C. for 1 hour. Template concentrations depended on the experiment but generally ranged from 50 nM to 1 μM with the exception of 43-P (FIG. 6H) which was 4 μM.
In the case of `COc1ccc(C[C@H]2NC[C@H](O)[C@H]2OC(C)=O)cc1` [anisomycin], the “decrease of RNA-peptide fusion formation” value is recorded as ~ 95%.

Turning to `C[C@@H]1C[C@@H]([C@H](O)CC2CC(=O)NC(=O)C2)C(=O)[C@@H](C)C1` [cycloheximide], the “decrease of RNA-peptide fusion formation” value is on record as ~ 95%.

With `CC[C@H]1CN2CCc3cc(OC)c(OC)cc3[C@@H]2C[C@@H]1C[C@H]1NCCc2cc(OC)c(OC)cc21` [emetine], the “decrease of RNA-peptide fusion formation” value is ~ 95%.

Consider `CNCC(=O)NC(CO)C(=O)NC1C(C(N)=O)OC(n2ccc(N)nc2=O)C(O)C1O` (stereo not drawn) [gougerotin], for which the “decrease of RNA-peptide fusion formation” value is ~ 95%.

With `CSC[S@+]([O-])C[C@H](CO)NC(=O)/C=C/c1c(C)[nH]c(=O)[nH]c1=O` [sparsomycin], the “decrease of RNA-peptide fusion formation” value is on record as ~ 95%.

The values above are taken from patent US6281344A, “Nucleic acid-protein fusion molecules and libraries” (priority 1999, dated 2001).
